Assay results published in article PMC3513969 (Evidence-based Complementary and Alternative Medicine : eCAM, 2012).
Values belong to the compound of their own block, whether it stands above or below them.

How the values were obtained:
[1] = Pharmacokinetic interaction between gemfibrozil and LipoCol Forte; assay type: in vivo, human; settings: for Effect of concomitant gemfibrozil on pharmacokinetic parameters (AUC, Cmax): one LipoCol Forte capsule, gemfibrozil 600 mg twice daily; for AUC(0-t): read-out: AUC0–12
Procedure: The volunteers were fasted overnight before dosing and a high fat breakfast or dinner was served 0.5 h after administration of gemfibrozil. […] Blood samples were prepared as described in the previous section (dose-escalation study).

[2] = Single dose escalation and multiple dosing pharmacokinetic study of LipoCol Forte; settings: for AUC0–12/dose / AUC0–inf/dose / CL/F / Cmax/dose / Accumulation with multiple dosing / Dose linearity of pharmacokinetic properties (AUC, Cmax) / AUC(0-inf) / Cmax / MRT / Tmax / Vd/F: healthy subjects; for AUC0–12/dose / AUC0–inf/dose / CL/F / Cmax/dose / AUC(0-t) / AUC(0-inf) / Cmax / MRT / half-life / Tmax / Vd/F: fed, mean ± SD, n = 14; for Accumulation with multiple dosing: one LipoCol Forte capsule twice daily for 5 days; for Dose linearity of pharmacokinetic properties (AUC, Cmax): single dose of 1, 2 or 4 LipoCol Forte capsules; for AUC(0-t) / AUC(0-inf) / Cmax / MRT / half-life / Tmax / Vd/F: human, plasma, oral; for AUC(0-t): AUC0–12, healthy subjects; for AUC(0-inf): AUC0–inf; for half-life: T1/2, healthy subjects
Procedure: A high fat breakfast (including two eggs fried in butter, two strips of bacon, two slices of toast with butter, four ounces of hash brown potatoes, and eight ounces of whole milk) was provided 30 min before dosing. All doses were administered with 240 mL of water. […] A high fat breakfast or dinner was served 30 min before dosing. One capsule was administered with 240 mL of water. […] Within 30 min of collection, the samples were centrifuged at 2,600 g for 10 minutes at 4°C and the plasma transferred to labeled polypropylene tubes containing 50 μL of 17% phosphoric acid and stored at −80°C until analysis.
The pharmacokinetics were characterized, when appropriate, by the peak concentration in the plasma (C max⁡), time to reach the peak concentration (T max⁡), area under the plasma concentration versus time curve from time zero to the time of the last quantifiable concentration (AUC0−t), AUC from time zero to the time extrapolated to infinity (AUC0−inf⁡), half-life (T 1/2), mean residence time (MRT), apparent clearance (CL/F), and apparent volume of distribution (V d/F).

P-gp = P-gp (Homo sapiens, UniProt P08183); assay type: cell-based; settings: MDCK-MDR1 cells, 25 μM (extracts adjusted to 25 μM lovastatin)
P-gp, sequence (P08183 whole entry): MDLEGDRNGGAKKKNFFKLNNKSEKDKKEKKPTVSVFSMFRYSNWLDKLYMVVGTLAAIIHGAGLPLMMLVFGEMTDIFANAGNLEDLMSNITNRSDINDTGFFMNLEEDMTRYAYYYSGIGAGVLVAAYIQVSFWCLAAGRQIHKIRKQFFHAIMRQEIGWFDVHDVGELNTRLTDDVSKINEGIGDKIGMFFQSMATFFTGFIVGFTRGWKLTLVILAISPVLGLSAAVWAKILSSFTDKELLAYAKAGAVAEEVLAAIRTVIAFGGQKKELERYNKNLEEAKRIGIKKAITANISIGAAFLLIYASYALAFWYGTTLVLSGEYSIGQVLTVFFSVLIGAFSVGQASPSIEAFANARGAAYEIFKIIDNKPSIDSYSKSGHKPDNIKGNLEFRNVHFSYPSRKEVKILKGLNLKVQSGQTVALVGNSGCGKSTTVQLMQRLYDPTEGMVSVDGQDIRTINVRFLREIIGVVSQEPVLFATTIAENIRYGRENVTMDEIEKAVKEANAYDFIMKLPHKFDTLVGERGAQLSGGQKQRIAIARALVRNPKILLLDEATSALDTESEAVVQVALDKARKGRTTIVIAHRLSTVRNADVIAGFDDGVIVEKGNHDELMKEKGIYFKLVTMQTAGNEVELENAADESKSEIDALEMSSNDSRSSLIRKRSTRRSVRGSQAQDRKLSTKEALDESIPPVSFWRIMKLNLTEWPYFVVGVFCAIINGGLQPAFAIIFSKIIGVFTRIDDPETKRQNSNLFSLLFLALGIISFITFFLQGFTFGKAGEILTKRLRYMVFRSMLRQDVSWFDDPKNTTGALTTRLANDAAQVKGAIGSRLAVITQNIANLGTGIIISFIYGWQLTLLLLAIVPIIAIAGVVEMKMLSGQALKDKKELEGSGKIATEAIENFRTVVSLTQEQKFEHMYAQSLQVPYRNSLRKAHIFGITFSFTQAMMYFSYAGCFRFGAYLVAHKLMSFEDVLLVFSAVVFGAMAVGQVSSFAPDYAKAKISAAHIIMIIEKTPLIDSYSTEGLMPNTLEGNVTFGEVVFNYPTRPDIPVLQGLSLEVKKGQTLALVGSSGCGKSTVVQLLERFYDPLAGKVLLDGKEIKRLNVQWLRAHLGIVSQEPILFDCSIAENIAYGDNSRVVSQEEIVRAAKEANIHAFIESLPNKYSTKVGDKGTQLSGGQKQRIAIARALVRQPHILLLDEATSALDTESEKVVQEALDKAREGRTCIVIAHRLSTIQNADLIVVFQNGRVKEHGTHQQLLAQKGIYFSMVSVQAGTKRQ
Procedure: MDCK-MDR1 cells (2.5 × 10^4 cells/cm^2) (from The Netherlands Cancer Institute) were cultured in polystyrene Nunclon multidishes under an atmosphere of 5% CO2/95% air. The minimal essential medium (MEM) (Invitrogen, CA, USA) contained 10% fetal bovine serum (Hyclone, UT, USA), 5.5 mM L-glutamine, 1.5 mg/mL of sodium bicarbonate, and 1 mM sodium pyruvate (all from Sigma, MO, USA), and 100 unit/mL of penicillin and 0.1 mg/mL of streptomycin (both from Invitrogen). […] The percentage of inhibition of P-gp activity and the IC50 values for P-gp inhibition were determined by the methods described by Rautio et al..

CYP1A2 = target: T1, CYP1A2 (Homo sapiens, UniProt P05177); test: Inhibition of CYP1A2 activity in human liver microsomes (acetaminophen/phenacetin ratio); assay type: biochemical; settings: extracts as lovastatin concentration, mean ± SEM, 3-4 preparations
T1 construct: Human liver microsomes (UltraPool HLM 150) were purchased from BD Biosciences; tissue BD Biosciences UltraPool HLM 150; host or cells: pooled human liver microsomes
T1 sequence (P05177 1-516): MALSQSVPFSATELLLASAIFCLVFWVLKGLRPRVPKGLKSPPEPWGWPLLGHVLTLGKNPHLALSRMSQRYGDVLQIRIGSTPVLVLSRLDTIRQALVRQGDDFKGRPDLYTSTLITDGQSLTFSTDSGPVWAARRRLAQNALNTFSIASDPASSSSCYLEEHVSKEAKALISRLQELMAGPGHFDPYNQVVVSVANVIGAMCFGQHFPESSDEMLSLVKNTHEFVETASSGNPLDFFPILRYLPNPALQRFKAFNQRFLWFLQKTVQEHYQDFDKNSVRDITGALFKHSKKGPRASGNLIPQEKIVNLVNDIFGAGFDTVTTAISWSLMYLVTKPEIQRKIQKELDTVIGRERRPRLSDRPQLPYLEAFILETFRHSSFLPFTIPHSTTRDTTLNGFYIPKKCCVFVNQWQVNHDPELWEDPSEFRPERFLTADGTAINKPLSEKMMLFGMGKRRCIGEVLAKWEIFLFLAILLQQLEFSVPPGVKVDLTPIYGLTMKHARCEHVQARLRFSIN

CYP2B6 = target: T2, CYP2B6 (Homo sapiens, UniProt P20813); test: Inhibition of CYP2B6 activity in human liver microsomes (hydroxybupropion/bupropion ratio); assay type: biochemical
T2 construct: Human liver microsomes (UltraPool HLM 150) were purchased from BD Biosciences; tissue BD Biosciences UltraPool HLM 150; host or cells: pooled human liver microsomes
T2 sequence (P20813 1-491): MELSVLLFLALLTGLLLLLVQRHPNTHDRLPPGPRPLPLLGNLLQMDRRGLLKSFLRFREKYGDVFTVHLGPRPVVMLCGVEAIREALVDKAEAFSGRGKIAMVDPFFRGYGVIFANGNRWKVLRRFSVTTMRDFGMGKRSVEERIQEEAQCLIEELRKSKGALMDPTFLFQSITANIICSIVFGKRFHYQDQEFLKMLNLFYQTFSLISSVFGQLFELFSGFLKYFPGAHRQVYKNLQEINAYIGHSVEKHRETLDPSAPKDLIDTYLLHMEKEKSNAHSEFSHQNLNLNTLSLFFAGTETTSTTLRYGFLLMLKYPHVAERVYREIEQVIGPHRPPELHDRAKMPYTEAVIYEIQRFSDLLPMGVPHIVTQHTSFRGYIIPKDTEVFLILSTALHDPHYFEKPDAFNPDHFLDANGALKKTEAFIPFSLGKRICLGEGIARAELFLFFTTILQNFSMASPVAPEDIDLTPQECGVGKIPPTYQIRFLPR

CYP2D6 = target: T3, CYP2D6 (Homo sapiens, UniProt P10635); test: Inhibition of CYP2D6 activity in human liver microsomes (dextrorphan/dextromethorphan ratio); assay type: biochemical
T3 construct: Human liver microsomes (UltraPool HLM 150) were purchased from BD Biosciences; tissue BD Biosciences UltraPool HLM 150; host or cells: pooled human liver microsomes
T3 sequence (P10635 whole entry): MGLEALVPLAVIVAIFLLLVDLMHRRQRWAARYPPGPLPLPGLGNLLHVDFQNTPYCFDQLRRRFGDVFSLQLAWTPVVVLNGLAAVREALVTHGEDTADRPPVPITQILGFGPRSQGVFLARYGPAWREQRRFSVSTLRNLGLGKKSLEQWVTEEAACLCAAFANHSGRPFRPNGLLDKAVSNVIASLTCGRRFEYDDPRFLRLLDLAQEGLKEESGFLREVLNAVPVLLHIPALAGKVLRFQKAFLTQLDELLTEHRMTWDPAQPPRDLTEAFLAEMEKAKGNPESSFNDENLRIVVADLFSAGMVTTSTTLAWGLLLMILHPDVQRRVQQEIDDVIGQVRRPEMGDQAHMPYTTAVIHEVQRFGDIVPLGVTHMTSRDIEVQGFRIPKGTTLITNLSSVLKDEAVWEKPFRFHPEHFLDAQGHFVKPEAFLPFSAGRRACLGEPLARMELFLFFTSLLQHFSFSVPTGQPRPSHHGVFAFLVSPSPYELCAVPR

[3] = healthy subjects, single dose one LipoCol Forte capsule alone, mean ± SD, n = 13
[4] = healthy subjects, single dose one LipoCol Forte capsule with coadministration of 600 mg gemfibrozil twice daily, mean ± SD, n = 13
[5] = human, plasma, oral, 1 LipoCol Forte capsule
[6] = human, plasma, oral, 1 LipoCol Forte capsule, read-out: Tmax
[7] = multiple doses one LipoCol Forte capsule BID for 5 days
[8] = single dose four LipoCol Forte capsules
[9] = single dose one LipoCol Forte capsule
[10] = single dose two LipoCol Forte capsules
[11] = 1 LipoCol Forte capsule, multiple doses one LipoCol Forte capsule BID for 5 days
[12] = 1 LipoCol Forte capsule, single dose one LipoCol Forte capsule
[13] = 2 LipoCol Forte capsules, single dose two LipoCol Forte capsules
[14] = 4 LipoCol Forte capsules, single dose four LipoCol Forte capsules

Effect of concomitant gemfibrozil on pharmacokinetic parameters (AUC, Cmax) ([1]; healthy subjects): significantly increased
CL/F [1, 3]: 218.4 ± 108.6 L/h
CL/F [1, 4]: 99.9 ± 48.4 L/h
AUC(0-inf) [1, 5]: 33.1 ± 18.2 ng·h/mL
Cmax [1, 5]: 6.79 ± 3.78 ng/mL
MRT [1, 5]: 6.19 ± 1.38 h
Vd/F [1, 5]: 644 ± 586 L
half-life [1, 5]: 1.94 ± 0.75 h
AUC(0-t) [1, 5]: 31.1 ± 16.5 ng·h/mL
Tmax [1, 6]: 4.85 ± 1.14 h
AUC0–12/dose [2, 7]: 5.69 ± 1.70
AUC0–inf/dose [2, 7]: 5.92 ± 1.70
CL/F [2, 7]: 192.3 ± 63.7 L/h
Cmax/dose [2, 7]: 1.41 ± 0.57
AUC0–12/dose [2, 8]: 6.94 ± 2.64
AUC0–inf/dose [2, 8]: 7.42 ± 2.76
CL/F [2, 8]: 150.2 ± 45.9 L/h
Cmax/dose [2, 8]: 1.59 ± 0.75
AUC0–12/dose [2, 9]: 5.75 ± 2.30
AUC0–inf/dose [2, 9]: 6.72 ± 2.85
CL/F [2, 9]: 172.9 ± 68.1 L/h
Cmax/dose [2, 9]: 1.37 ± 0.72
AUC0–12/dose [2, 10]: 6.94 ± 2.42
AUC0–inf/dose [2, 10]: 7.50 ± 2.44
CL/F [2, 10]: 145.7 ± 43.1 L/h
Cmax/dose [2, 10]: 1.56 ± 0.81
Accumulation with multiple dosing [2]: no accumulation
Dose linearity of pharmacokinetic properties (AUC, Cmax) [2]: linear
AUC(0-t) [2, 11]: 32.4 ± 9.7 ng·h/mL
AUC(0-t) [2, 12]: 33 ± 13.1 ng·h/mL
AUC(0-inf) [2, 11]: 33.7 ± 9.7 ng·h/mL
AUC(0-inf) [2, 12]: 38.3 ± 16.2 ng·h/mL
Cmax [2, 11]: 8.04 ± 3.24 ng/mL
Cmax [2, 12]: 7.78 ± 4.12 ng/mL
MRT [2, 11]: 5.59 ± 1.15 h
MRT [2, 12]: 7.15 ± 3.3 h
half-life [2, 11]: 1.92 ± 0.34 h
half-life [2, 12]: 2.57 ± 1.74 h
Tmax [2, 11]: 4.36 ± 0.93 h
Tmax [2, 12]: 5.07 ± 1.59 h
Vd/F [2, 11]: 544 ± 241 L
Vd/F [2, 12]: 603 ± 337 L
AUC(0-t) [2, 13]: 79.1 ± 27.6 ng·h/mL
AUC(0-inf) [2, 13]: 85.4 ± 27.8 ng·h/mL
Cmax [2, 13]: 17.8 ± 9.21 ng/mL
MRT [2, 13]: 6.43 ± 1.77 h
half-life [2, 13]: 2.07 ± 0.68 h
Tmax [2, 13]: 5.14 ± 1.7 h
Vd/F [2, 13]: 438 ± 189 L
AUC(0-t) [2, 14]: 158 ± 60.2 ng·h/mL
AUC(0-inf) [2, 14]: 169 ± 62.9 ng·h/mL
Cmax [2, 14]: 36.2 ± 17.1 ng/mL
MRT [2, 14]: 6.39 ± 1.43 h
half-life [2, 14]: 2.04 ± 0.68 h
Tmax [2, 14]: 5 ± 1.52 h
Vd/F [2, 14]: 456 ± 265 L
SMILES: CC[C@H](C)C(=O)O[C@H]1C[C@@H](C)C=C2C=C[C@H](C)[C@H](CC[C@@H](O)C[C@@H](O)CC(=O)O)[C@H]21 [Lovastatin acid, lovastatin acid]

Inhibition of P-gp activity (digoxin uptake) (P-gp): highest inhibition
SMILES: C/C=C/C[C@@H](C)C(=O)[C@H]1C(=O)N[C@@H](C(C)C)C(=O)N(C)CC(=O)N(C)[C@@H](CC(C)C)C(=O)N[C@@H](C(C)C)C(=O)N(C)[C@@H](CC(C)C)C(=O)N[C@@H](C)C(=O)N[C@H](C)C(=O)N(C)[C@@H](CC(C)C)C(=O)N(C)[C@@H](CC(C)C)C(=O)N(C)[C@@H](C(C)C)C(=O)N1C [PSC833]

IC50 (CYP1A2): > 100 µM
IC50 (CYP2B6): 15 ± 1.11 µM
IC50 at 20 min (CYP2B6; human, human liver microsomes, probe bupropion): 9 to 16 µM
IC50 (CYP2D6): > 50 µM
Effect of concomitant gemfibrozil on pharmacokinetic parameters (AUC, Cmax) ([1]; healthy subjects): no significant effects
CL/F [1, 3]: 1374.0 ± 782.6 L/h
CL/F [1, 4]: 1372.5 ± 763.8 L/h
Tmax [1, 4]: 3.00 ± 1.37 h
AUC(0-inf) [1, 5]: 5.68 ± 3.48 ng·h/mL
Cmax [1, 5]: 1.53 ± 1.45 ng/mL
MRT [1, 5]: 4.87 ± 1.28 h
Vd/F [1, 5]: 4000 ± 2600 L
half-life [1, 5]: 2.12 ± 0.7 h
AUC(0-t) [1, 5]: 5 ± 3.29 ng·h/mL
Tmax [1, 6]: 3.08 ± 1.17 h
CL/F [2, 7]: 1339.5 ± 763.3 L/h
CL/F [2, 8]: 1128.8 ± 624.4 L/h
CL/F [2, 9]: 941.7 ± 453.5 L/h
CL/F [2, 10]: 994.5 ± 548.8 L/h
Accumulation with multiple dosing [2]: no accumulation
Dose linearity of pharmacokinetic properties (AUC, Cmax) [2]: linear
AUC(0-t) [2, 11]: 5.22 ± 2.6 ng·h/mL
AUC(0-t) [2, 12]: 6.74 ± 3.27 ng·h/mL
AUC(0-inf) [2, 11]: 5.71 ± 2.68 ng·h/mL
AUC(0-inf) [2, 12]: 7.47 ± 3.44 ng·h/mL
Cmax [2, 11]: 1.41 ± 0.69 ng/mL
Cmax [2, 12]: 1.61 ± 0.8 ng/mL
MRT [2, 11]: 4.81 ± 1.24 h
MRT [2, 12]: 5.55 ± 1.98 h
half-life [2, 11]: 1.93 ± 0.43 h
half-life [2, 12]: 2.36 ± 0.66 h
Tmax [2, 11]: 3.39 ± 1.38 h
Tmax [2, 12]: 3.46 ± 1.28 h
Vd/F [2, 11]: 3570 ± 1800 L
Vd/F [2, 12]: 3080 ± 1330 L
AUC(0-t) [2, 13]: 13.4 ± 6.07 ng·h/mL
AUC(0-inf) [2, 13]: 14.4 ± 6.3 ng·h/mL
Cmax [2, 13]: 3.36 ± 1.81 ng/mL
MRT [2, 13]: 5.27 ± 1.42 h
half-life [2, 13]: 2.36 ± 0.68 h
Tmax [2, 13]: 3.29 ± 1.35 h
Vd/F [2, 13]: 3380 ± 2050 L
AUC(0-t) [2, 14]: 24.9 ± 14.2 ng·h/mL
AUC(0-inf) [2, 14]: 26.8 ± 15.4 ng·h/mL
Cmax [2, 14]: 5.7 ± 3.42 ng/mL
MRT [2, 14]: 5.51 ± 1.11 h
half-life [2, 14]: 2.42 ± 0.45 h
Tmax [2, 14]: 3.25 ± 0.78 h
Vd/F [2, 14]: 3860 ± 1960 L
SMILES: CC[C@H](C)C(=O)O[C@H]1C[C@@H](C)C=C2C=C[C@H](C)[C@H](CC[C@@H]3C[C@@H](O)CC(=O)O3)[C@H]21 [Pure lovastatin, lovastatin, reference compound]
